# Assay results as given in patent publication US20250171437A1 (Agios Pharmaceuticals,Inc., priority 2022, published 2025).
# Molecular target: T1, human PAH with the R408W mutation (A375 R408W cells) (Homo sapiens, UniProt P00439, R408W)
# T1 construct: expressed in transfected cells
# T1 sequence (P00439 1-452 R408W): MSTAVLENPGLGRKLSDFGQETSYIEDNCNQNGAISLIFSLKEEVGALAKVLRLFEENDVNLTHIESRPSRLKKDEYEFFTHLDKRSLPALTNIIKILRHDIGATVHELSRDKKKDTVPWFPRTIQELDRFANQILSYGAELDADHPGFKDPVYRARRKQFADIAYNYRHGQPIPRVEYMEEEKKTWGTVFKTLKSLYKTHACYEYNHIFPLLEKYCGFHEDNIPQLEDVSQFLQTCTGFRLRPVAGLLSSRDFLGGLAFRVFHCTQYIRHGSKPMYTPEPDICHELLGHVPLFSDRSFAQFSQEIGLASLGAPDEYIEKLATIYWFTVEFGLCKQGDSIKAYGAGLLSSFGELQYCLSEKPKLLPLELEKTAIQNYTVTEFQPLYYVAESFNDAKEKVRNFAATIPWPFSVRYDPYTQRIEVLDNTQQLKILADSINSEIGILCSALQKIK
# Assay: Cell Based Phenylalanine Flux Assay
# Conditions: 24 hrs with compound, then 20 μM sepiapterin and 800 μM 13C9,15N-Phenylalanine for 4 hours, 13C-Tyrosine by LC-MS, average where tested multiple times
# Procedure, shortened: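 A375 cells stably expressing human PAH R408W treated 24 h at 37° C with a 10-point 2-fold dose curve in duplicate, 0.5% DMSO. Then 20 μM sepiapterin and 800 μM 13C9,15N-Phe added for 4 h; 13C-Tyr in media measured by LC-MS to give AC50.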
# [1] = A375 cells expressing R408W PAH
Structure (SMILES),AC50 (A375 R408W cells),AC50 [1]
"O=C(c1cnn2cc(N3CCN(C4CC4)CC3)ccc12)N1CCc2[nH]cnc2[C@H]1c1nc2cc(F)ccc2o1 [Example 133, (S)-(6-(4-cyclopropylpiperazin-1-yl)pyrazolo[1,5-a]pyridin-3-yl)(4-(5-fluorobenzo[d]oxazol-2-yl)-6,7-dihydro-1H-imidazo[4,5-c]pyridin-5(4H)-yl)methanone]",500 to 1000 nM,
"COCc1nc(C(F)F)c(C(=O)N2CCc3[nH]cnc3[C@@H]2c2nc3cc(F)ccc3o2)o1 [Example 109, (R)-(4-(difluoromethyl)-2-(methoxymethyl)oxazol-5-yl)(4-(5-fluorobenzo[d]oxazol-2-yl)-6,7-dihydro-1H-imidazo[4,5-c]pyridin-5(4H)-yl)methanone]",1000 to 5000 nM,
Fc1ccc2oc(C3c4nc[nH]c4CCN3Cc3ocnc3C(F)F)nc2c1 (stereo not shown),,≥ 5000 nM
"Cc1ccc2oc([C@H]3c4nc[nH]c4CCN3C(=O)c3oc(C(C)(C)O)nc3Br)nc2c1 [Example 408, (R)-(4-bromo-2-(2-hydroxypropan-2-yl)oxazol-5-yl)(4-(5-methylbenzo[d]oxazol-2-yl)-6,7-dihydro-1H-imidazo[4,5-c]pyridin-5(4H)-yl)methanone]",500 to 1000 nM,
"Cc1cccc2oc([C@H]3c4nc[nH]c4CCN3C(=O)c3ncnn3C)nc12 [Example 902, (R)-(1-methyl-1H-1,2,4-triazol-5-yl)(4-(4-methylbenzo[d]oxazol-2-yl)-6,7-dihydro-1H-imidazo[4,5-c]pyridin-5(4H)-yl)methanone]",1000 to 5000 nM,
Cc1nc(CN(C)C)oc1C(=O)N1CCc2[nH]cnc2C1c1nc2cc(F)ccc2o1 (stereo not shown),,≥ 5000 nM
O=C(c1cnco1)N1CCc2[nH]cnc2C1c1nc2ccc(F)cc2o1 (stereo not shown),,1000 to 5000 nM
Cc1nc(C(C)O)oc1C(=O)N1CCc2[nH]cnc2C1c1nc2c(F)cccc2o1 (stereo not shown),,1000 to 5000 nM
O=C(c1cn[nH]c1Cl)N1CCc2[nH]cnc2C1c1nc2cc(F)ccc2o1 (stereo not shown),,1000 to 5000 nM
"O=C(c1oc(C2(O)CC2)nc1C(F)F)N1CCc2[nH]cnc2[C@@H]1c1nc2cc(F)ccc2o1 [Example 142, (R)-(4-(difluoromethyl)-2-(1-hydroxycyclopropyl)oxazol-5-yl)(4-(5-fluorobenzo[d]oxazol-2-yl)-6,7-dihydro-1H-imidazo[4,5-c]pyridin-5(4H)-yl)methanone]",1000 to 5000 nM,
"Cn1nc(C(F)F)nc1C(=O)N1CCc2[nH]cnc2[C@H]1c1nc2c(F)ccc(F)c2o1 [Example 486, (S)-(4-(4,7-difluorobenzo[d]oxazol-2-yl)-6,7-dihydro-1H-imidazo[4,5-c]pyridin-5(4H)-yl)(3-(difluoromethyl)-1-methyl-1H-1,2,4-triazol-5-yl)methanone]",500 to 1000 nM,
"Cc1nc(C(=O)N2CCc3[nH]cnc3[C@H]2c2nc3cccc(F)c3o2)n(C)n1 [Example 495, (S)-(1,3-dimethyl-1H-1,2,4-triazol-5-yl)(4-(7-fluorobenzo[d]oxazol-2-yl)-6,7-dihydro-1H-imidazo[4,5-c]pyridin-5(4H)-yl)methanone]",1000 to 5000 nM,
"O=C(c1nnc(-c2ncccc2F)o1)N1CCc2[nH]cnc2[C@H]1c1nc2ccccc2o1 [Example 833, (S)-(4-(benzo[d]oxazol-2-yl)-6,7-dihydro-1H-imidazo[4,5-c]pyridin-5(4H)-yl)(5-(3-fluoropyridin-2-yl)-1,3,4-oxadiazol-2-yl)methanone]",≤ 500 nM,
CC(C)(O)c1noc(C(=O)N2CCc3[nH]cnc3C2c2nc3ccc(F)cc3o2)n1 (stereo not shown),,≥ 5000 nM
"Cc1nc([C@H](C)O)oc1C(=O)N1CCc2[nH]cnc2[C@H]1c1nc2cccc(F)c2o1 [Example 247, ((S)-4-(7-fluorobenzo[d]oxazol-2-yl)-6,7-dihydro-1H-imidazo[4,5-c]pyridin-5(4H)-yl)(2-((S)-1-hydroxyethyl)-4-methyloxazol-5-yl)methanone]",500 to 1000 nM,
"O=C(c1nnc(-c2ccccn2)o1)N1CCc2[nH]cnc2[C@@H]1c1nc2ccc(F)cc2o1 [Example 304, (R)-(4-(6-fluorobenzo[d]oxazol-2-yl)-6,7-dihydro-1H-imidazo[4,5-c]pyridin-5(4H)-yl)(5-(pyridin-2-yl)-1,3,4-oxadiazol-2-yl)methanone]",1000 to 5000 nM,
